According to PMC5298231, “The Malaria Parasite's Lactate Transporter PfFNT Is the Target of Antiplasmodial Compounds Identified in Whole Cell Phenotypic Screens” (PLoS Pathogens, 2017):

Tested on: erythrocytes infected with 3D7 trophozoites
Assay type: cell-based, Plasmodium falciparum
Details: Av 3hr; 6 μM

## COc1ccc2c(c1)OC(O)(C(F)(F)C(F)(F)F)CC2=O (stereo not shown) [MMV007839]
  2-Hydroxyglutarate log2 ratio (+MMV007839/-MMV007839): -0.6103
  2-Ketoglutarate log2 ratio (+MMV007839/-MMV007839): -0.8232
  3-Phosho-D-glycerate log2 ratio (+MMV007839/-MMV007839): 0.07426
  3-Phospho-serine log2 ratio (+MMV007839/-MMV007839): -0.4035
  4-Aminobutanoate log2 ratio (+MMV007839/-MMV007839): 0.8488
  5-Phosphoribosyl-1-pyrophosphate log2 ratio (+MMV007839/-MMV007839): 0.5077
  ADP log2 ratio (+MMV007839/-MMV007839): -0.7166
  AMP log2 ratio (+MMV007839/-MMV007839): -0.5704
  ATLS log2 ratio (+MMV007839/-MMV007839): -0.2347
  ATP log2 ratio (+MMV007839/-MMV007839): -0.2177
  Acetyl-CoA log2 ratio (+MMV007839/-MMV007839): -0.7235
  Acetyl-L-alanine log2 ratio (+MMV007839/-MMV007839): -0.3599
  Adenine log2 ratio (+MMV007839/-MMV007839): -0.8446
  Arginine log2 ratio (+MMV007839/-MMV007839): 0.2396
  Asparagine log2 ratio (+MMV007839/-MMV007839): -0.1753
  Aspartic Acid log2 ratio (+MMV007839/-MMV007839): -0.3736
  CDP log2 ratio (+MMV007839/-MMV007839): -0.5752
  CDP-ethanolamine log2 ratio (+MMV007839/-MMV007839): 0.02366
  CMP log2 ratio (+MMV007839/-MMV007839): -0.08882
  CTP log2 ratio (+MMV007839/-MMV007839): -0.3119
  Cholesteryl sulfate log2 ratio (+MMV007839/-MMV007839): -0.1335
  Citrate log2 ratio (+MMV007839/-MMV007839): -0.1028
  CoA log2 ratio (+MMV007839/-MMV007839): -0.556
  Cyclic AMP log2 ratio (+MMV007839/-MMV007839): -0.7854
  Cytidine log2 ratio (+MMV007839/-MMV007839): -0.2914
  D-Glucono-1-4-lactone log2 ratio (+MMV007839/-MMV007839): 1.992
  DALT log2 ratio (+MMV007839/-MMV007839): -0.8981
  DEVG log2 ratio (+MMV007839/-MMV007839): -0.08263
  DGLA log2 ratio (+MMV007839/-MMV007839): -0.7349
  DLS log2 ratio (+MMV007839/-MMV007839): -0.6175
  Deoxycytidine log2 ratio (+MMV007839/-MMV007839): 1.594
  Dihydroorotate log2 ratio (+MMV007839/-MMV007839): -1.064
  ESFG log2 ratio (+MMV007839/-MMV007839): -0.07747
  EVGG log2 ratio (+MMV007839/-MMV007839): -0.1694
  Erythrose 4-phosphate log2 ratio (+MMV007839/-MMV007839): -0.2579
  FAD log2 ratio (+MMV007839/-MMV007839): -0.4239
  FMN log2 ratio (+MMV007839/-MMV007839): -0.4985
  Farnesyl diphosphate log2 ratio (+MMV007839/-MMV007839): -0.04123
  Folate log2 ratio (+MMV007839/-MMV007839): -0.3602
  Fructose-1-6-bisphosphate log2 ratio (+MMV007839/-MMV007839): 1.146
  Fructose-6-Phosphate log2 ratio (+MMV007839/-MMV007839): 0.05598
  GDP log2 ratio (+MMV007839/-MMV007839): -1.202
  GDP-mannose log2 ratio (+MMV007839/-MMV007839): -0.4414
  GMP log2 ratio (+MMV007839/-MMV007839): -1.665
  GTP log2 ratio (+MMV007839/-MMV007839): -0.7051
  Geranylgeranyl pyrophosphate log2 ratio (+MMV007839/-MMV007839): -0.6827
  Gluconate log2 ratio (+MMV007839/-MMV007839): -0.02575
  Glucose-6-Phosphate log2 ratio (+MMV007839/-MMV007839): -0.3489
  Glutamate log2 ratio (+MMV007839/-MMV007839): -0.07518
  Glutamine log2 ratio (+MMV007839/-MMV007839): 0.8027
  Glutathione disulfide log2 ratio (+MMV007839/-MMV007839): -0.1266
  Glutathione log2 ratio (+MMV007839/-MMV007839): -0.02749
  Glyceraldehyde 3-phosphate log2 ratio (+MMV007839/-MMV007839): -0.5897
  Glycerone phosphate log2 ratio (+MMV007839/-MMV007839): 0.4029
  HLD log2 ratio (+MMV007839/-MMV007839): -0.9223
  HVDD log2 ratio (+MMV007839/-MMV007839): -1.392
  Histidine log2 ratio (+MMV007839/-MMV007839): 0.6908
  Homoserine log2 ratio (+MMV007839/-MMV007839): 0.249
  Hydroxy-L-proline log2 ratio (+MMV007839/-MMV007839): 0.1081
  Hypoxanthine log2 ratio (+MMV007839/-MMV007839): 0.2683
  IDP log2 ratio (+MMV007839/-MMV007839): 0.1036
  IMP log2 ratio (+MMV007839/-MMV007839): -0.04113
  Inosine log2 ratio (+MMV007839/-MMV007839): 0.2492
  Isoleucine log2 ratio (+MMV007839/-MMV007839): 0.01345
  LD log2 ratio (+MMV007839/-MMV007839): 0.008648
  Lactate log2 ratio (+MMV007839/-MMV007839): 2.632
  Leucine log2 ratio (+MMV007839/-MMV007839): -0.1293
  Lysine log2 ratio (+MMV007839/-MMV007839): 0.8307
  Malate log2 ratio (+MMV007839/-MMV007839): -0.2233
  Mannitol log2 ratio (+MMV007839/-MMV007839): -0.2308
  Methionine log2 ratio (+MMV007839/-MMV007839): -0.1652
  Myristic acid log2 ratio (+MMV007839/-MMV007839): -0.3456
  N-Acetyl-glutamate log2 ratio (+MMV007839/-MMV007839): -0.8123
  N-Carbamoyl-L-aspartate log2 ratio (+MMV007839/-MMV007839): -1.502
  NAD+ log2 ratio (+MMV007839/-MMV007839): 0.03216
  NADH log2 ratio (+MMV007839/-MMV007839): -1.72
  NADP+ log2 ratio (+MMV007839/-MMV007839): -0.3346
  Octoluse Bisphosphate log2 ratio (+MMV007839/-MMV007839): 1.811
  Ornithine log2 ratio (+MMV007839/-MMV007839): -0.1015
  Orotate log2 ratio (+MMV007839/-MMV007839): -1.466
  Orotidine 5-phosphate log2 ratio (+MMV007839/-MMV007839): -1.489
  Orotidine log2 ratio (+MMV007839/-MMV007839): -1.057
  PAEF log2 ratio (+MMV007839/-MMV007839): -1.307
  PAVH log2 ratio (+MMV007839/-MMV007839): -1.929
  PD log2 ratio (+MMV007839/-MMV007839): 0.2119
  PDAV log2 ratio (+MMV007839/-MMV007839): 0.3685
  PE log2 ratio (+MMV007839/-MMV007839): 0.9141
  PEE log2 ratio (+MMV007839/-MMV007839): -0.2135
  PHF log2 ratio (+MMV007839/-MMV007839): 0.05129
  PPVQ log2 ratio (+MMV007839/-MMV007839): -0.3492
  PVNF log2 ratio (+MMV007839/-MMV007839): -0.8559
  PVQ log2 ratio (+MMV007839/-MMV007839): 0.3164
  PVQA log2 ratio (+MMV007839/-MMV007839): -1.408
  Pantothenate log2 ratio (+MMV007839/-MMV007839): -0.2954
  Phenylalanine log2 ratio (+MMV007839/-MMV007839): -0.1326
  Phosphoenolpyruvate log2 ratio (+MMV007839/-MMV007839): 0.2604
  Pipecolate log2 ratio (+MMV007839/-MMV007839): 0.1041
  Proline log2 ratio (+MMV007839/-MMV007839): -0.09895
  Pyridoxine log2 ratio (+MMV007839/-MMV007839): -0.07403
  Pyruvate log2 ratio (+MMV007839/-MMV007839): 1.858
  Ribose-5-phosphate log2 ratio (+MMV007839/-MMV007839): 0.8813
  S-Adenosyl-L-homocysteine log2 ratio (+MMV007839/-MMV007839): -0.314
  SDGLA log2 ratio (+MMV007839/-MMV007839): -0.3844
  SFGD log2 ratio (+MMV007839/-MMV007839): -0.2955
  Sedoheptoluse bisphosphate log2 ratio (+MMV007839/-MMV007839): -0.1481
  Sedoheptulose-1/7-phosphate log2 ratio (+MMV007839/-MMV007839): 0.2199
